Non-standard residues stand in square brackets, D forms with d. Residues, ends and D or L forms follow the SMILES beside them. *: point of attachment. FITC = O=C1OC2(c3ccc(O)cc3Oc3cc(O)ccc32)c2ccc(NC(=S)*)cc21; PEG8 = NCCOCCOCCOCCOCCOCCOCCOCCOCCC(=O)O; PEG6 = NCCOCCOCCOCCOCCOCCOCCC(=O)O; PEG2 = NCCOCCOCCC(=O)O; X7 = Fc1ccc(O*)cc1
Test system: daratumumab
Experiment: Absorbance based DAR analysis of FITC conjugation to antibody
Format: biochemical
Method: In some embodiments, reaction partners, e.g., compounds of formula R-I or salts thereof ere dissolved in DMSO to 5 mM stock solution.
In some embodiments, reactions are set up with 300 micrograms of antibody. In some embodiments, various conditions, including various buffers, reagent equivalents, reaction time, reaction temperature and reaction concentrations can be utilized.
As an example, one reaction is 300 microliter reaction with 1 mg/mL of antibody in PBS. Peptide I-45 (1 microliter of 5 mM stock in DMSO, 2.5 molar equivalents relative to daratumumab) was diluted in 284 microliters of PBS buffer (10 mM phosphate, 150 mM sodium chloride, pH 7.4), then 15 microliters of daratumumab (20 mg/mL stock) was added to the reaction mixture followed by incubation at room temperature in the dark. After 4 h reaction buffer was exchanged using Amicon Ultra centrifuge filter (30 KDa MWCO, 0.5 mL volume). First, glycine buffer (100 mM, pH 2.1) was used for buffer exchange to ensure dissociation of target binding moieties after reaction. Then, phosphate buffer saline (pH 7.4) was used for further buffer exchange and storage.
In another example, a reaction is 300 microliter reaction with 1 mg/mL of antibody in borate buffer. Peptide I-44 (1.2 microliter of 5 mM stock in DMSO, 3.0 molar equivalents relative to daratumumab) was diluted in 284 microliters of Borate buffer (100 mM borate, pH 8.3), then 15 microliters of daratumumab (20 mg/mL stock) was added to the reaction mixture followed by incubation at room temperature in the dark. After 20 h reaction buffer was exchanged using Amicon Ultra centrifuge filter (30 KDa MWCO, 0.5 mL volume). First, glycine buffer (100 mM, pH 2.1) was used for buffer exchange to ensure dissociation of target binding moieties after reaction. Then, phosphate buffer saline (10 mM phosphate, 150 mM sodium chloride, pH 7.4) was used for further buffer exchange and storage.
In some embodiments, a useful technology is absorbance based DAR analysis. DAR (ratio of moieties of interest and target agent moieties (e.g., antibody agent moieties) was calculated for various antibody conjugates, e.g., in various reagent screening/assessment methods. Various agents comprising target binding moieties were assessed for conjugation efficiency as reaction partners with targets, e.g. protein agents such as antibody agents, compared to reagents with the same reactive groups but without target binding moieties. In various ratio determination ‘Drug’/moiety of interest is fluorescein isothiocyanate (FITC) dye conjugated to target agents, e.g., antibody agents. DAR molar ratio is defined as a ratio of moles of drug/moiety of interest to moles of target agent/antibody. Molarity is calculated from absorbance of FITC (A485) and antibody (A280) of conjugated product, and extinction coefficients of FITC and antibody using Beer-Lambert law. Correction coefficient 0.35 was used to correct for absorbance of FITC at 280 nm. Biotek Synergy H1 microplate reader and Take3 microvolume plate were used for absorbance measurements. Concentration of antibody was at least 3 mg/mL for optimal signal-to-noise in the readings. Certain target binding moieties that can provide higher DAR compared to equivalent controls (absence of target binding moieties) were selected as hits for further analysis. Certain assessment data were provided below as examples.

[1] = 10 M eq reagent, Bicarbonate buffer pH 8.3, 2 h, 37 C, Drug = FITC
[2] = 2.5 M eq reagent, phosphate buffer saline pH 7.4, 4 h, 25 C, Drug = FITC
[3] = 30 M eq reagent, borate buffer pH 8.3, 20 h, 37 C, Drug = FITC
[4] = 5 M eq reagent, bicarbonate buffer pH 8.3, 20 h, 37 C, Drug = FITC
[5] = 10 M eq reagent, Bicarbonate buffer pH 8.3, 20 h, 25 C, Drug = FITC
[6] = 5 M eq reagent, phosphate buffer saline pH 7.4, 4 h, 25 C, Drug = FITC

COc1ccc(NC(=O)c2cn3ccsc3n2)cc1C(=O)NCCCC(=O)NCc1cc(F)c(OC(=O)CCOCCOCCOCCOCCOCCOCCNC(=S)Nc2ccc3c(c2)C(=O)OC32c3ccc(O)cc3Oc3cc(O)ccc32)c(F)c1 [Compound I-1]
DAR [1]: 1.00

CCCCNc1nc(NCCOCCOCCC(=O)NCc2cc(F)c(OC(=O)CCOCCOCCOCCOCCOCCOCCNC(=S)Nc3ccc4c(c3)C(=O)OC43c4ccc(O)cc4Oc4cc(O)ccc43)c(F)c2)nc(NCc2cccc(F)c2)n1 [Compound I-2]
DAR [1]: 1.76

Cc1nc2cc(C(=O)Nc3nc(-c4ccccn4)cs3)ccc2n1CCCC(=O)NCc1cc(F)c(OC(=O)CCOCCOCCOCCOCCOCCOCCNC(=S)Nc2ccc3c(c2)C(=O)OC32c3ccc(O)cc3Oc3cc(O)ccc32)c(F)c1 [Compound I-3]
DAR [1]: 1.39

CC(=O)NCc1ccc(OC(=O)CCOCCOCCOCCOCCOCCOCCNC(=S)Nc2ccc3c(c2)C(=O)OC32c3ccc(O)cc3Oc3cc(O)ccc32)c(F)c1 [Compound I-10]
DAR [2]: 0.08 | DAR (2.5 M eq, 25 C, 4 h, PBS pH 7.4): 0.08 | DAR (2.5 M eq, 25 C, 20 h, Borate pH 8.2): 0.21 | DAR (2.5 M eq, 25 C, 20 h, PBS pH 7.4): 0.07 | DAR (2.5 M eq, 25 C, 20 h, PBS pH 7.8): 0.15 | DAR (2.5 M eq, 25 C, 20 h, PBS pH 8.0): 0.06 | DAR (2.5 M eq, 25 C, 20 h, PBS pH 8.2): 0.03 | DAR (2.5 M eq, 30 C, 20 h, PBS pH 7.4): 0.05 | DAR (2.5 M eq, 37 C, 20 h, PBS pH 7.4): 0.17 | DAR [1]: 0.14 | DAR [3]: 0.98

CC(=O)NCc1ccc(OC(=O)CCOCCOCCOCCOCCOCCOCCNC(=S)Nc2ccc3c(c2)C(=O)OC32c3ccc(O)cc3Oc3cc(O)ccc32)cc1 [Compound I-11]
DAR [2]: 0.05 | DAR [1]: 0.14 | DAR [3]: 0.14

Cc1nc2cc(C(=O)Nc3nc(-c4ccccn4)cs3)ccc2n1CCCC(=O)NCc1ccc(OC(=O)CCOCCOCCOCCOCCOCCOCCNC(=O)Nc2ccc3c(c2)C(=O)OC32c3ccc(O)cc3Oc3cc(O)ccc32)c(F)c1 [Compound I-12]
DAR [4]: 1.44

Cc1nc2cc(C(=O)Nc3nc(-c4ccccn4)cs3)ccc2n1CCCC(=O)NCc1ccc(OC(=O)CCOCCOCCOCCOCCOCCOCCNC(=S)Nc2ccc3c(c2)C(=O)OC32c3ccc(O)cc3Oc3cc(O)ccc32)cc1 [Compound I-13]
DAR [4]: 0.09

CCCCNc1nc(NCCOCCOCCC(=O)NCc2ccc(OC(=O)CCOCCOCCOCCOCCOCCOCCNC(=S)Nc3ccc4c(c3)C(=O)OC43c4ccc(O)cc4Oc4cc(O)ccc43)c(F)c2)nc(NCc2cccc(F)c2)n1 [Compound I-14]
DAR [1]: 0.29

CCCCNc1nc(NCCOCCOCCC(=O)NCc2ccc(OC(=O)CCOCCOCCOCCOCCOCCOCCNC(=S)Nc3ccc4c(c3)C(=O)OC43c4ccc(O)cc4Oc4cc(O)ccc43)cc2)nc(NCc2cccc(F)c2)n1 [Compound I-15]
DAR [1]: 0.74

O=C(CCCc1c[nH]c2ccccc12)NCc1cc(F)c(OC(=O)CCOCCOCCOCCOCCOCCOCCNC(=S)Nc2ccc3c(c2)C(=O)OC32c3ccc(O)cc3Oc3cc(O)ccc32)c(F)c1 [Compound I-16]
DAR [4]: 0.30

O=C(CCCc1c[nH]c2ccccc12)NCc1ccc(OC(=O)CCOCCOCCOCCOCCOCCOCCNC(=S)Nc2ccc3c(c2)C(=O)OC32c3ccc(O)cc3Oc3cc(O)ccc32)c(F)c1 [Compound I-17]
DAR [4]: 0.37

CCNC(=O)c1ccc(OC(=O)CCOCCOCCOCCOCCOCCOCCNC(=S)Nc2ccc3c(c2)C(=O)OC32c3ccc(O)cc3Oc3cc(O)ccc32)cc1 [Compound I-19]
DAR [2]: 0.20

COc1ccc(NC(=O)c2cn3ccsc3n2)cc1C(=O)NCCCC(=O)N[C@@H](CCC(=O)N(C)OC)C(=O)NCCOCCOCCOCCOCCOCCOCCOCCOCCN(CCCS(=O)(=O)O)C(=O)OC[C@H]1[C@@H]2CCc3c(nnn3CCOCCOCCOCCOCCNC(=S)Nc3ccc4c(c3)C(=O)OC43c4ccc(O)cc4Oc4cc(O)ccc43)CC[C@@H]21 [Compound I-20]
DAR [5]: 0.72

N=C(N)NCCC[C@H](NC(=O)CCOCCOCCOCCOCCOCCOCCOCCOCCNC(=O)c1ccc(OC(=O)CCOCCOCCOCCOCCOCCOCCNC(=S)Nc2ccc3c(c2)C(=O)OC32c3ccc(O)cc3Oc3cc(O)ccc32)cc1)C(=O)N[C@@H](CCCNC(=N)N)C(=O)NCC(=O)N[C@@H](Cc1c[nH]c2ccccc12)C(=O)O [Compound I-21]
DAR [5]: 0.18

N=C(N)NCCC[C@H](NC(=O)CCOCCOCCOCCOCCNC(=O)c1ccc(OC(=O)CCOCCOCCOCCOCCOCCOCCNC(=S)Nc2ccc3c(c2)C(=O)OC32c3ccc(O)cc3Oc3cc(O)ccc32)cc1)C(=O)N[C@@H](CCCNC(=N)N)C(=O)NCC(=O)N[C@@H](Cc1c[nH]c2ccccc12)C(=O)O [Compound I-22]
DAR [5]: −0.18

N=C(N)NCCC[C@H](NC(=O)CCOCCOCCNC(=O)c1ccc(OC(=O)CCOCCOCCOCCOCCOCCOCCNC(=S)Nc2ccc3c(c2)C(=O)OC32c3ccc(O)cc3Oc3cc(O)ccc32)cc1)C(=O)N[C@@H](CCCNC(=N)N)C(=O)NCC(=O)N[C@@H](Cc1c[nH]c2ccccc12)C(=O)O [Compound I-23]
DAR [5]: 0.14

CC(=O)N[C@@H](CC(=O)O)C(=O)N[C@H]1CSSC[C@@H](C(=O)N[C@H](C(=O)O)[C@@H](C)O)NC(=O)[C@H](Cc2c[nH]c3ccccc23)NC(=O)[C@H](C(C)C)NC(=O)[C@H](CC(C)C)NC(=O)[C@H](CCC(=O)O)NC(=O)CNC(=O)[C@H](CCC(=O)Nc2cc(OC(=O)CCOCCOCCOCCOCCOCCOCCOCCOCCNC(=S)Nc3ccc4c(c3)C(=O)OC43c4ccc(O)cc4Oc4cc(O)ccc43)ccc2F)NC(=O)[C@H](Cc2c[nH]cn2)NC(=O)[C@H](Cc2c[nH]c3ccccc23)NC(=O)[C@H](C)NC1=O [Compound I-24]
DAR [6]: 0.05 | DAR [3]: 0.83

CC(C)C[C@@H]1NC(=O)[C@H](Cc2cnc[nH]2)NC(=O)[C@H](Cc2c[nH]c3ccccc23)NC(=O)[C@H](C)NC(=O)[C@@H](NC(=O)[C@@H](N)CC(=O)O)CSSC[C@@H](C(=O)N[C@H](C(=O)O)[C@@H](C)O)NC(=O)[C@H](Cc2c[nH]c3ccccc23)NC(=O)[C@H](C(C)C)NC(=O)[C@H](CC(C)C)NC(=O)[C@H](CCC(=O)Nc2cc(OC(=O)CCOCCOCCOCCOCCOCCOCCOCCOCCNC(=S)Nc3ccc4c(c3)C(=O)OC43c4ccc(O)cc4Oc4cc(O)ccc43)ccc2F)NC(=O)CNC1=O [Compound I-25]
DAR [6]: 0.10 | DAR [3]: 1.25

N=C(N)NCCC[C@H](NC(=O)CCOCCOCCNC(=O)[C@@H](CCC(=O)Oc1ccc(F)cc1)NC(=O)CCOCCOCCOCCOCCOCCOCCNC(=S)Nc1ccc2c(c1)C(=O)OC21c2ccc(O)cc2Oc2cc(O)ccc21)C(=O)N[C@@H](CCCNC(=N)N)C(=O)NCC(=O)N[C@@H](Cc1c[nH]c2ccccc12)C(=O)O [Compound I-26] ({FITC-PEG6}-[dE](X7)[PEG2]RRGW-OH)
DAR [3]: −0.10

N=C(N)NCCC[C@H](NC(=O)CCOCCOCCOCCOCCOCCOCCOCCOCCNC(=O)[C@H](CCC(=O)Oc1ccc(F)cc1)NC(=O)CCOCCOCCOCCOCCOCCOCCNC(=S)Nc1ccc2c(c1)C(=O)OC21c2ccc(O)cc2Oc2cc(O)ccc21)C(=O)N[C@@H](CCCNC(=N)N)C(=O)NCC(=O)N[C@@H](Cc1c[nH]c2ccccc12)C(=O)O [Compound I-27] ({FITC-PEG6}-E(X7)[PEG8]RRGW-OH)
DAR [3]: −0.02

CC(=O)N[C@@H](CC(=O)O)C(=O)N[C@H]1CSSC[C@@H](C(=O)N[C@H](C(=O)O)[C@@H](C)O)NC(=O)[C@H](Cc2c[nH]c3ccccc23)NC(=O)[C@H](C(C)C)NC(=O)[C@H](CC(C)C)NC(=O)[C@H](CCC(=O)O)NC(=O)CNC(=O)[C@H](CC(C)C)NC(=O)[C@H](CCNC(=O)c2ccc(OC(=O)CCOCCOCCOCCOCCOCCOCCNC(=S)Nc3ccc4c(c3)C(=O)OC43c4ccc(O)cc4Oc4cc(O)ccc43)cc2)NC(=O)[C@H](Cc2c[nH]c3ccccc23)NC(=O)[C@H](C)NC1=O [Compound I-42]
DAR [2]: 0.13
